These results are taken from article PMC7059629 (Letters in drug design & discovery, 2019).

Usually EC50 stands for the concentration that produces a half-maximal response.

Format in all cases: cell-based
Assay [1] concerns the target rat mGlu2/4 heterodimer (Rattus norvegicus, UniProt P31421+P31423). Nature of the assay: mGlu2/4 heterodimer PAM thallium flux assay. To be noted: for mGlu2/4 % Glu Max: ±SEM.
Assay [2] has as its target rat mGlu2 (Rattus norvegicus, UniProt P31421). Nature of the assay: mGlu2 homodimer thallium flux assay. The settings on record: rat mGlu2-HEK293 cells, EC20 glutamate.
Assay [3] concerns the target homodimeric mGlu4 (Homo sapiens, UniProt Q14833). The experiment in a line: mGlu4 Gqi5 calcium assay.
Setting [4] is: rat mGlu2/4-HEK293 cells, thallium flux, EC20 glutamate.

For the molecule `Cc1nc(-c2ccc(OCC(C)C)c(C#N)c2)sc1C(=O)NC1CCOCC1` [11a, 2-(3-cyano-4-iosbutoxyphenyl)-4-methyl-N-(tetrahydro-2H-pyran-4-yl)thiazole-5-carboxamide], in assay [1] (setting [4]), the “mGlu2/4 pEC50 (±SEM)” value is given as 5.28±0.03 and the “mGlu2/4 % Glu Max” value is recorded as 35±2 % Glu Max. The “mGlu2 pEC50 (±SEM)” value in assay [2] was 5.32±0.02. The “mGlu2 % Glu Max” value in assay [2] (±SEM) turned out to be 73±30 % Glu Max.

`NC(=O)[C@@H]1CCCC[C@@H]1C(=O)Nc1ccc(Cl)c(Cl)c1` [compound 5, Lu AF21934]: in assay [1] (setting [4]), the “mGlu2/4 % Glu Max” value is listed as 89 % Glu Max.

`Cc1nc(-c2ccc(OCC(C)C)c(C#N)c2)sc1C(=O)O` [compound 9, febuxostat]: the figures for the 50% effective concentration (EC50) in assay [3] and in assay [1] were above 30 µM and 3.39 µM, respectively. For the same molecule, the “mGlu2/4 % Glu Max” value in assay [1] (setting [4]) amounted to 52.4±3.7 % Glu Max.
